“And” between values parts separate entries of the source, which are not always exact repeats. Equal entries are not always repeated. Structures can show the parent of a compound that is named as a salt.
Legend:
[1] = system: embryo/fetal development in pregnant Sprague Dawley rats; details: 6 mpk subcutaneously once every three days, Gestation Days 6-18, pregnant rats
Procedure: The objective of this study design was to evaluate the potential effects of disclosed compounds on embryo/fetal development when given subcutaneously to pregnant rats once every three days during the critical period of organogenesis (Gestation Days 6-18). Female, Sprague Dawley rats, approximately 10 weeks of age, time bred, were ordered from a certified vendor and housed individually housed in stainless steel cages suspended over flush pans, on a 12-hour light-dark cycle (0700-1900) at 20-26° C. and 30-70% humidity. Rats were fed a standard rodent chow and provided water ad libitum. Rats were received and housed in the facility for a period of approximately 1 to 2 days.
Compounds were formulated using 100% DMSO mixed in Sterile Water for Injection, resulting in 2% DMSO solution in water. If necessary, due to limited solubility of a test article, a higher percentage of DMSO solution in water was used. Groups of 8 mated and presumed pregnant female rats were given subcutaneous doses of vehicle or test article, once every three days, beginning on Gestation Day 6 and ending on Gestation Day 18 (Days 6, 9, 12, 15, and 18), maintained two more days, and then euthanized and necropsied on Gestation Day 20. Body weights was recorded for all animals on Gestation Days 5 (purpose of randomization), 6, 9, 12, 15, 18, and 20 (scheduled euthanasia). Food consumption by weight was recorded on Gestation Days 6, 9, 12, 15, 18, and 20 (scheduled termination).
At necropsy, the dams were examined visually for external abnormalities including palpable masses. The abdominal, thoracic, and cranial cavities and their contents were examined for abnormalities and findings will be recorded. The reproductive tract were examined to record the number of ovarian corpora lutea, the number and location of uterine implantation sites noting the position of the cervix, and the number of early resorptions, late resorptions, live fetuses, and dead fetuses. For dead fetuses and late resorptions, crown-to-rump length and weight were recorded, if possible, and the fetus was discarded. For viable fetuses, weight, sex, and grossly visible external abnormalities were recorded.

[2] = system: Diet Induced Obese (DIO) C57BL/6 mice; assay: 10 day DIO mouse model (body weight, food intake, hematology, blood chemistry); assay type: in vivo
Text: The objective of this study design was to investigate the efficacy of disclosed compounds in a 10 day DIO mouse model. Effects on body weight, food intake, hematology and blood chemistry were the primary readouts of this study design. […] Mice were fed Research Diets D12492 (60% Kcal fat, 20% Kcal carbohydrate and 20% protein) and provided water ad libitum. DIO mice were received and housed in the facility for approximately two weeks prior to the start of test article administration. On Day −4 or −3, mice were randomized into study groups based on body weight and body weights were continued to be recorded daily for the duration of the study. Daily food intake was assessed starting on Study Day −2 by weighing of the food with hopper together to avoid loss of food in transfer.
(§1) Compounds were formulated into a 100% DMSO stock (at 9 mg/mL) prior to the start, and further diluted into the target working concentration using the vehicle of 10% DMSO in water. Prior to test article administration, starting on Day −3 a dosing acclimation occured with all animals receiving a subcutaneous injection of vehicle (10% DMSO) only for 3 days. Starting on Day 1, test compounds or vehicle were administered based on individual body weight, subcutaneously, once a day for 10 days. All mice were sacrificed on Day 11, 24 hours following the final dosing on Day 10. After sacrifice, whole blood was collected and analyzed for hematology and blood chemistry parameters.
(§2) Compounds were tested vs. vehicle at various doses (1.0, 0.5, 0.3, 0.1, 0.03 mpk sc (mg per kg animal weight delivered subcutaneously), and the results are shown in Table 2 below.

[3] = system: Sprague Dawley rats on high fat diet (DIO); assay: 11 day rat DIO model (body weight, food intake, hematology, blood chemistry); assay type: in vivo
Text: The objective of this study design is to investigate the efficacy of disclosed compounds in an 11 day rat DIO model used to screen compounds for pharmacologic efficacy on endpoints related to obesity and metabolism. Effects on body weight, food intake, hematology and blood chemistries were the primary readouts of this study design. […] Rats were fed Research Diets D12451 (45% High Fat) and provided water ad libitum. Rats were received and housed in the facility for at least two or three weeks prior to start of test article administration. On Day −4 or −3, rats were randomized into study groups based on body weight and body weights were continued to be recorded daily for the duration of the study. Daily food intake was assessed starting on Study Day −2 by weighing the hopper including the food to avoid loss of food in transfer.
as §1, with “for 11” for “for 10”, “All animals” for “All mice”, “11, approximately 2” for “11, 24”, “Day 11.” for “Day 10.”
as §2

SMILES	Rat Embryofetal @6 mpk [1]	other results
CO[C@@H]1[C@H](OC(=O)N2CC(CCN3CCOCC3)C2)CC[C@]2(CO2)[C@H]1[C@@]1(C)O[C@@H]1CC=C(C)C [Example 1, (3R,4S,5S,6R)-5-methoxy-4-((2R,3R)-2-methyl-3-(3-methylbut-2-en-1-yl)oxiran-2-yl)-1-oxaspiro[2.5]octan-6-yl 3-(2-morpholinoethyl)azetidine-1-carboxylate]	Negative	–
CO[C@@H]1[C@H](OC(=O)N2CC(CCN3CC(F)(F)C3)C2)CC[C@]2(CO2)[C@H]1[C@@]1(C)O[C@@H]1CC=C(C)C [Example 2, (3R,4S,5S,6R)-5-methoxy-4-((2R,3R)-2-methyl-3-(3-methylbut-2-enyl)oxiran-2-yl)-1-oxaspiro[2.5]octan-6-yl 3-(2-(3,3-difluoroazetidin-1-yl)ethyl)azetidine-1-carboxylate]	Negative	–
CO[C@@H]1[C@H](OC(=O)N2CC(CCN3CCC(O)CC3)C2)CC[C@]2(CO2)[C@H]1[C@@]1(C)O[C@@H]1CC=C(C)C [Example 7, (3R,4S,5S,6R)-5-methoxy-4-((2R,3R)-2-methyl-3-(3-methylbut-2-en-1-yl)oxiran-2-yl)-1-oxaspiro[2.5]octan-6-yl 3-(2-(4-hydroxypiperidin-1-yl)ethyl)azetidine-1-carboxylate]	–	DIO Mouse 10-day weight loss vs vehicle at indicated dose ([2]; DIO mouse, 0.3 mpk sc, once a day for 10 days): 1.8%
CO[C@@H]1[C@H](OC(=O)N2CC(CCN3CC4CCC(C3)O4)C2)CC[C@]2(CO2)[C@H]1[C@@]1(C)O[C@@H]1CC=C(C)C [Example 33, (4S,5S,6R)-5-methoxy-4-((2R,3R)-2-methyl-3-(3-methylbut-2-enyl)oxiran-2-yl)-1-oxaspiro[2.5]octan-6-yl 3-(2-(8-oxa-3-azabicyclo[3.2.1]octan-3-yl)ethyl)azetidine-1-carboxylate]	–	percent body weight loss vs vehicle at 0.3 mg/kg ([2]; 240 h, DIO mouse, 0.3 mpk sc, once a day for 10 days, read-out: DIO Mouse 10-day weight loss vs vehicle at indicated dose): 15.9%
CNC(=O)OC1CN(C(=O)O[C@@H]2CC[C@]3(CO3)[C@@H]([C@@]3(C)O[C@@H]3CC=C(C)C)[C@@H]2OC)C1 [Example 74, (3R,4S,5S,6R)-5-methoxy-4-((2R,3R)-2-methyl-3-(3-methylbut-2-enyl)oxiran-2-yl)-1-oxaspiro[2.5]octan-6-yl 3-(methylcarbamoyloxy)azetidine-1-carboxylate]	Negative	–
CO[C@@H]1[C@H](OC(=O)N2CC(OC(=O)N3CCN(C)CC3)C2)CC[C@]2(CO2)[C@H]1[C@@]1(C)O[C@@H]1CC=C(C)C [Example 78, 1-(((3R,4S,5S,6R)-5-methoxy-4-((2R,3R)-2-methyl-3-(3-methylbut-2-enyl)oxiran-2-yl)-1-oxaspiro[2.5]octan-6-yloxy)carbonyl)azetidin-3-yl 4-methylpiperazine-1-carboxylate]	Positive	–
CO[C@@H]1[C@H](OC(=O)N2CC(OC(=O)N3CCN(CC(F)(F)F)CC3)C2)CC[C@]2(CO2)[C@H]1[C@@]1(C)O[C@@H]1CC=C(C)C [Example 81, 1-(((3R,4S,5S,6R)-5-methoxy-4-((2R,3R)-2-methyl-3-(3-methylbut-2-enyl)oxiran-2-yl)-1-oxaspiro[2.5]octan-6-yloxy)carbonyl)azetidin-3-yl 4-(2,2,2-trifluoroethyl)piperazine-1-carboxylate]	Positive	–
CCN(CC)CCNC(=O)CCC1CN(C(=O)O[C@@H]2CC[C@]3(CO3)[C@@H]([C@@]3(C)O[C@@H]3CC=C(C)C)[C@@H]2OC)C1 [Example 88, (3R,4S,5S,6R)-5-methoxy-4-((2R,3R)-2-methyl-3-(3-methylbut-2-enyl)oxiran-2-yl)-1-oxaspiro[2.5]octan-6-yl 3-(3-(2-(diethylamino)ethylamino)-3-oxopropyl)azetidine-1-carboxylate formate]	Positive	DIO Mouse 10-day weight loss vs vehicle at indicated dose ([2]; mouse, in vivo, sc, 0.3 mg/kg): 9%; DIO Rat 11-day weight loss vs vehicle at indicated dose ([3]; rat, in vivo, sc, 0.3 mg/kg): 4.4%
CO[C@@H]1[C@H](OC(=O)N2CC(Cc3ccc(C)nc3)C2)CC[C@]2(CO2)[C@H]1[C@@]1(C)O[C@@H]1CC=C(C)C [Example 101, (3R,4S,5S,6R)-5-methoxy-4-((2R,3R)-2-methyl-3-(3-methylbut-2-enyl)oxiran-2-yl)-1-oxaspiro[2.5]octan-6-yl 3-((6-methylpyridin-3-yl)methyl)azetidine-1-carboxylate]	Positive	–
CCN(CC)CCC1CN(C(=O)O[C@@H]2CC[C@]3(CO3)[C@@H]([C@@]3(C)O[C@@H]3CC=C(C)C)[C@@H]2OC)C1 [Example 103, (3R,4S,5S,6R)-5-methoxy-4-((2R,3R)-2-methyl-3-(3-methylbut-2-enyl)oxiran-2-yl)-1-oxaspiro[2.5]octan-6-yl 3-(2-(diethylamino)ethyl)azetidine-1-carboxylate]	Positive	–
CCN(CC)CCCC1CN(C(=O)O[C@@H]2CC[C@]3(CO3)[C@@H]([C@@]3(C)O[C@@H]3CC=C(C)C)[C@@H]2OC)C1 [Example 104, (3R,4S,5S,6R)-5-methoxy-4-((2R,3R)-2-methyl-3-(3-methylbut-2-enyl)oxiran-2-yl)-1-oxaspiro[2.5]octan-6-yl 3-(3-(diethylamino)propyl)azetidine-1-carboxylate]	Positive	–
CCN(CC)CCC1CCN1C(=O)O[C@@H]1CC[C@]2(CO2)[C@@H]([C@@]2(C)O[C@@H]2CC=C(C)C)[C@@H]1OC (stereo partly drawn) [Example 106, (3R,4S,5S,6R)-5-methoxy-4-((2R,3R)-2-methyl-3-(3-methylbut-2-enyl)oxiran-2-yl)-1-oxaspiro[2.5]octan-6-yl 2-(2-(diethylamino)ethyl)azetidine-1-carboxylate]	–	DIO Mouse 10-day weight loss vs vehicle at indicated dose ([2]; DIO mouse, 0.1 mpk sc, once a day for 10 days): 2%; DIO Mouse 10-day weight loss vs vehicle at indicated dose ([2]; DIO mouse, 0.3 mpk sc, once a day for 10 days, 0.3 mg/kg): 10.8% and 0.8%; DIO Rat 11-day weight loss vs vehicle at indicated dose ([3]; DIO rat, 0.5 mpk sc, once a day for 11 days): 4.82%
CO[C@@H]1[C@H](OC(=O)/C=C/c2ccc(OCCN(C)C)cc2)CC[C@]2(CO2)[C@H]1[C@@]1(C)O[C@@H]1CC=C(C)C [compound A, [(3R,6R,7S,8S)-7-methoxy-8-[(2R,3R)-2-methyl-3-(3-methylbut-2-enyl)oxiran-2-yl]-2-oxaspiro[2.5]octan-6-yl] (E)-3-[4-[2-(dimethylamino)ethoxy]phenyl]prop-2-enoate, reference compound]	Positive	–

From patent publication US20190084968A1, “FUMAGILLOL HETEROCYCLIC COMPOUNDS AND METHODS OF MAKING AND USING SAME” (Zafgen, Inc., priority 2015, published 2019)
